The values that follow are results of earlier work, collected in PMC7751758, “Repurposing Sigma-1 Receptor Ligands for COVID-19 Therapy?” (Frontiers in Pharmacology, 2020).

The IC50 is the midpoint of a concentration-inhibition curve. Broadly, the Ki is the equilibrium dissociation constant of an inhibitor or competing ligand from its target.

One data set concerns the target Sigma-1 receptor. To be noted: for IC50: read-out: Sigma-1 receptor affinity IC50; for Ki: read-out: Sigma-1 receptor affinity Ki.
Data set [1] concerns HCV infection of human hepatocarcinoma Huh-7 cells. The following applies: absence of cytotoxicity at low micromolar and submicromolar concentrations; ref Gastaminza et al., 2010.

Several values for one entry are separate records, joined by “and”; a condition that tells them apart may be missing. Equal entries are not always repeated. Bounds are passed on as bounds.

Consider `CC(COc1ccccc1Cc1ccccc1)N1CCCCC1` (stereo not drawn) [Benproperine], for which, at Sigma-1 receptor, the IC50 was 0.019 µM. For the same compound, the “reduction in HCV infection of Huh-7 cells, as compared to the vehicle DMSO control” value (from here on “reduction in HCV infection”) in data set [1] was > 85%.

Regarding `C[C@@H]1CN(CCCn2c3ccccc3c3ccccc32)C[C@H](C)N1` [Rimcazole, 9-[3-(cis-3,5-Dimethyl-1-piperazinyl)-propyl]carbazole], at Sigma-1 receptor, the IC50 was […]; the Ki was […]. Moreover, the “reduction in HCV infection” value in data set [1] is > 85%.

As to `Cc1cc2c(s1)Nc1ccccc1N=C2N1CCN(C)CC1` [olanzapine], in the data set with Sigma-1 receptor, the Sig-1R activity entry is recorded as “no significant Sig-1R activity”.

For the compound `CN1CCC(=C2c3ccccc3CC(=O)c3sccc32)CC1` [Ketotifen], the IC50 at Sigma-1 receptor is 3.8 µM. In addition, the “reduction in HCV infection” value in data set [1] is > 85%.

For the compound `OC(c1cc(C(F)(F)F)nc2c(C(F)(F)F)cccc12)C1CCCCN1` (stereo not drawn) [Mefloquine], the “Antiviral activity: Virus” value in the data set with SARS-CoV and in the data set with MERS-CoV was “in vitro activity” throughout. Further, the concentration for half-maximal inhibition (IC50) at Sigma-1 receptor was 2.56 µM.

Turning to (−)-Butaclamol, on Sigma-1 receptor, the half-maximal inhibitory concentration (IC50) was 0.183 µM.

In the case of `NC(=NCc1ccc(Cl)cc1)SCCCc1cnc[nH]1` [Clobenpropit], the concentration for half-maximal inhibition (IC50) on Sigma-1 receptor was 1.08 µM. Further, in data set [1], the “reduction in HCV infection” value was > 85%.

Regarding `CN1CCC(=C2c3ccccc3C=Cc3ccccc32)CC1` [Cyproheptadine], the “reduction in HCV infection” value in data set [1] is > 85%.

In the case of `O=C1NCN(c2ccccc2)C12CCN(CCCC(c1ccc(F)cc1)c1ccc(F)cc1)CC2` [Fluspirilene], the “Antiviral activity: Virus” value in the data set on SARS-CoV is listed as “in vitro activity”. For the same compound, the “Antiviral activity: Virus” value with MERS-CoV is listed as “in vitro activity”. At Sigma-1 receptor, the half-inhibitory concentration (IC50) was 0.38 µM and 0.563 µM; the Ki is 0.15 µM.

As for `CN1CCCC(n2nc(Cc3ccc(Cl)cc3)c3ccccc3c2=O)CC1` (stereo not drawn) [Azelastine], the half-inhibitory concentration (IC50) at Sigma-1 receptor is 0.274 µM. For the same compound, the “reduction in HCV infection” value in data set [1] is on record as > 85%.

With `CN1CCN(c2nc3cc(C(F)(F)F)ccc3n3cccc23)CC1.O=C(O)/C=C\C(=O)O.O=C(O)/C=C\C(=O)O` [CGS 12066B], the IC50 at Sigma-1 receptor was 1.18 µM. The “reduction in HCV infection” value in data set [1] was > 85%.

With `CN1CCN(CC/C=C2/c3ccccc3Sc3ccc(S(=O)(=O)N(C)C)cc32)CC1` [Thiothixene], the “Antiviral activity: Virus” value in the data set with SARS-CoV and in the data set on MERS-CoV was “in vitro activity” each time. The 50% inhibitory concentration (IC50) at Sigma-1 receptor is 0.353 µM.

`CC(=O)[C@H]1CC[C@H]2[C@@H]3CCC4=CC(=O)CC[C@]4(C)[C@H]3CC[C@]12C` [Progesterone]: at Sigma-1 receptor, the half-inhibitory concentration (IC50) was 1.96 µM; the Ki was 0.173 to 0.196 µM and 0.26 to 0.338 µM.

For the compound `Fc1ccc(-n2cc(CCCCN3CCC4(CC3)OCc3ccccc34)c3ccccc32)cc1` [Siramesine], on Sigma-1 receptor, the IC50 was 0.017 µM.

Turning to `CCN(CC)Cc1cc(Nc2ccnc3cc(Cl)ccc23)ccc1O` [Amodiaquine], the “Antiviral activity: Virus” value with SARS-CoV and in the data set with MERS-CoV was “in vitro activity” each time. At Sigma-1 receptor, the IC50 was 0.355 µM.

Consider `Clc1ccc2c(c1)CCc1cccnc1C2=C1CCNCC1` [Desloratadine], for which the “reduction in HCV infection” value in data set [1] is reported as > 85%.

As for `CN(C)CCOC(C)(c1ccccc1)c1ccc(Cl)cc1` (stereo not drawn) [Chlorphenoxamine], the “Antiviral activity: Virus” value with SARS-CoV and in the data set on MERS-CoV was “in vitro activity” each time. Moreover, at Sigma-1 receptor, the concentration for half-maximal inhibition (IC50) was 1.76 µM.

With `C[C@@H]1C[C@@H]([C@H](O)CC2CC(=O)NC(=O)C2)C(=O)[C@@H](C)C1` [Cycloheximide], the “Antiviral activity: Virus” value with SARS-CoV and with MERS-CoV was “in vitro activity” in each case. Also, the IC50 on Sigma-1 receptor is 1.03 µM.

As to `Clc1ccc(C(OCCN2CCCCC2)c2ccccc2)cc1` (stereo not drawn) [Cloperastine], on Sigma-1 receptor, the IC50 was 0.277 µM and the Ki is 0.02 µM.

Take (±)-Butaclamol: on Sigma-1 receptor, the concentration for half-maximal inhibition (IC50) is 0.343 µM.
